{"source": "paper PMC4658208", "about": "(Journal of medicinal chemistry, 2015)", "key": {"[1]": {"system": "rabbit reticulocytes, eukaryotic TT", "assay": "Eukaryotic TT assay using rabbit reticulocytes", "type": "biochemical", "details": "read-out: IC50 eukaryotic TT assay, data not shown"}, "[2]": {"system": "S30 extracts of E. coli, coupled Transcription-Translation (RNA polymerase)"}, "[3]": {"details": "logD7.4"}, "[4]": {"system": "S30 extracts of E. coli, coupled Transcription-Translation (RNA polymerase)", "details": "high-throughput screen hit; cited from earlier work"}, "H. influenzae acrB": {"system": "H. influenzae acrB", "assay": "Antibacterial activity", "type": "cell-based, Haemophilus influenzae", "details": "efflux-negative strain"}, "[5]": {"details": "equilibrium solubility"}, "[6]": {"details": "cited from earlier work"}}}
{"compound": "3,5-dimethyl-N-(2-(4-(4-methylbenzyl)piperidin-1-yl)-3,4-dioxocyclobut-1-enyl)isoxazole-4-sulfonamide [compound 1]", "values": [{"measurement": "IC50", "setting": "[1]", "result": "> 100000", "unit": "nM"}, {"measurement": "IC50", "setting": "[2]; read-out: IC50 Eco-TT, E. coli coupled transcription-translation assay", "result": 280, "unit": "nM"}, {"measurement": "fu, compound fraction unbound to human plasma protein", "setting": "human plasma, minimum detection level 1%", "result": "<1", "unit": "%"}, {"measurement": "logD", "setting": "[3]", "result": 0.1}, {"measurement": "half maximal inhibitory concentration (IC50), TT assay", "setting": "[4]", "result": "sub-micromolar"}, {"measurement": "MIC H. influenzae acrB", "setting": "H. influenzae acrB", "result": 200, "unit": "µM"}, {"measurement": "Solubility", "setting": "[5]", "result": ">1000", "unit": "µM"}]}
{"compound": "O=c1c(NS(=O)(=O)c2ccccc2)c(N2CCC(Cc3ccccc3)CC2)c1=O", "note": "[compound 2, N-(2-(4-benzylpiperidin-1-yl)-3,4-dioxocyclobut-1-enyl)benzenesulfonamide]", "values": [{"measurement": "reduction in activity/potency in the TT assay", "setting": "[2]; compared to compound 1", "result": 7, "unit": "fold"}]}
{"compound": "Cc1nn(C(F)F)cc1S(=O)(=O)Nc1c(N2CCC(Cc3ccccc3)CC2)c(=O)c1=O", "note": "[compound 3, N-(2-(4-benzylpiperidin-1-yl)-3,4-dioxocyclobut-1-enyl)-1-(difluoromethyl)-3-methyl-1H-pyrazole-4-sulfonamide]", "values": [{"measurement": "biochemical activity in TT assay, in words", "setting": "[2]", "result": "biochemically active"}]}
{"compound": "Cc1noc(C)c1C(=O)Nc1c(N2CCC(Cc3ccccc3)CC2)c(=O)c1=O", "note": "[compound 4, N-(2-(4-benzylpiperidin-1-yl)-3,4-dioxocyclobut-1-enyl)-3,5-dimethylisoxazole-4-carboxamide]", "values": [{"measurement": "biochemical activity in TT assay, in words", "setting": "[2]", "result": "inactive"}]}
{"compound": "Cc1noc(C)c1S(=O)(=O)Nc1c(N2CCC(C)CC2)c(=O)c1=O", "note": "[compound 5, 3,5-dimethyl-N-(2-(4-methylpiperidin-1-yl)-3,4-dioxocyclobut-1-enyl)isoxazole-4-sulfonamide]", "values": [{"measurement": "biochemical activity in TT assay, in words", "setting": "[2]", "result": "inactive"}]}
{"compound": "Cc1noc(C)c1S(=O)(=O)Nc1c(N2CCC(c3ccccc3)CC2)c(=O)c1=O", "note": "[compound 6, N-(3,4-dioxo-2-(4-phenylpiperidin-1-yl)cyclobut-1-enyl)-3,5-dimethylisoxazole-4-sulfonamide]", "values": [{"measurement": "biochemical activity in TT assay, in words", "setting": "[2]", "result": "much less active"}]}
{"compound": "Cc1noc(C)c1S(=O)(=O)Nc1c(N2CCC(NCc3ccc(C(F)(F)F)cc3)CC2)c(=O)c1=O", "note": "[compound 14, N-(3,4-dioxo-2-(4-(4-(trifluoromethyl)benzylamino)piperidin-1-yl)cyclobut-1-enyl)-3,5-dimethylisoxazole-4-sulfonamide]", "values": [{"measurement": "improvement of free fraction (fu)", "setting": "compound 14 versus compound 8", "result": 7, "unit": "fold"}, {"measurement": "reduction of free fraction", "setting": "compound 14 versus compound 13", "result": "four"}]}
{"compound": "Cc1noc(C)c1S(=O)(=O)Nc1c(N2CCC(N(C)CC3CCCCC3)CC2)c(=O)c1=O", "note": "[compound 17, N-(2-(4-((cyclohexylmethyl)(methyl)amino)piperidin-1-yl)-3,4-dioxocyclobut-1-enyl)-3,5-dimethylisoxazole-4-sulfonamide]", "values": [{"measurement": "biochemical activity in TT assay, in words", "setting": "[2]", "result": "inactive"}]}
{"compound": "myxopyronin", "values": [{"measurement": "plasma protein binding, in words", "setting": "[6]", "result": "highly plasma protein bound"}]}
